Patent publication US20180133343A1, “NANOPARTICLE CONJUGATES AND USES THEREOF” (Massachusetts Institute of Technology, priority 2016, published 2018)

System: CD8+ T cells
Experiment: Drug concentration in CD8+ T cells after in vitro incubation
Assay type: cell-based
Settings: free drug at 10-fold higher dose, compared to drug-loaded nanoparticles

Cc1cccc(-c2[nH]c(C(C)(C)C)nc2-c2ccc3nccnc3c2)n1 [SB525334]
drug/cell ratio: lower drug/cell ratio
